Assay results taken from patent US11965039B2, “Compstatin analogues and their medical uses” (priority 2018, dated 2024).
Where two headings read alike, the source gives them in different places. Positions of bridges follow the written chain, without caps; N, C: chain ends. Non-standard residues stand in square brackets, D forms with d. Residues, ends and D or L forms follow the SMILES beside them. Trp(1-Me) = Cn1cc(C[C@H](N)C(=O)O)c2ccccc21; 2Nal = N[C@@H](Cc1ccc2ccccc2c1)C(=O)O; Sar = CNCC(=O)O

Experiments:
[1] = tested on: classical complement pathway; test: In vitro haemolysis assay (inhibition of classical complement pathway); format: cell-based, human; conditions: human serum, sensitized sheep red blood cells
Summary of the method: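 Compound dilutions preincubated 15 min at room temperature with diluted human serum (titrated per batch for 70-90% maximal haemolysis), then antibody-sensitized sheep RBC (10^7/well) added for 30 min at 37 °C in Tris/casein buffer, pH 7.4. Stopped with EDTA; haemolysis read at 405 nm; IC50 by 4PL fit.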

[2] = Solubility test at 10 mg/mL (visual inspection and light scattering); format: physicochemical; conditions: for Solubility, Condition 1: Acetate pH 4; for Solubility, Condition 2: Acetate pH 5; for Solubility, Condition 3: Phosphate pH 6; for Solubility, Condition 4: Phosphate pH 7; for Solubility, Condition 5: Phosphate pH 7.5
[3] = Table 3, given as upper bounds, read-out: IC50, inhibition of hemolysis

Row | Structure (SMILES) | IC50 [1, 3] | Solubility, Condition 1 [2] | Solubility, Condition 2 [2] | Solubility, Condition 3 [2] | Solubility, Condition 4 [2] | Solubility, Condition 5 [2] | IC50 ([1]; Table 2, read-out: CP hemolysis IC50) | IC50 ([1]; Table 4, valine 3 vs isoleucine 3 pairs, read-out: CP hemolysis IC50)
1 | CC[C@H](C)[C@H](NC(C)=O)C(=O)N[C@H]1CSSC[C@@H](C(=O)N[C@H](C(=O)NCC(=O)N[C@@H](C)C(=O)N[C@@H](CCC(=O)O)C(=O)N[C@@H](CO)C(N)=O)[C@@H](C)O)NC(=O)[C@H](CCCNC(=N)N)NC(=O)[C@H](Cc2c[nH]cn2)NC(=O)[C@H](CCC(=O)O)NC(=O)CNC(=O)[C@H](Cc2c[nH]c3ccccc23)NC(=O)[C@H](CC(=O)O)NC(=O)[C@H](CCC(N)=O)NC(=O)[C@H](Cc2ccc3ccccc3c2)NC(=O)[C@H]([C@@H](C)CC)NC1=O [Compound 52] (Ac-ICI[2Nal]QDWGEHRCTGAES-NH2; disulfide 2-12) | < 100 nM | − (“−” denotes lack of solubility at the given condition, as UV absorbance at 340 nm exceeds 0.1 AU and/or it is visibly turbid or contains particles) | − (“−” denotes lack of solubility at the given condition, as UV absorbance at 340 nm exceeds 0.1 AU and/or it is visibly turbid or contains particles) | + (“+” denotes solubility at the given condition, as determined by UV absorbance being less than 0.1 AU at 340 nm and the sample being clear when manually inspected) | + (“+” denotes solubility at the given condition, as determined by UV absorbance being less than 0.1 AU at 340 nm and the sample being clear when manually inspected) | + (“+” denotes solubility at the given condition, as determined by UV absorbance being less than 0.1 AU at 340 nm and the sample being clear when manually inspected) |  | 
2 | CC[C@H](C)[C@H](NC(C)=O)C(=O)N[C@H]1CSSC[C@@H](C(=O)N[C@H](C(N)=O)[C@@H](C)O)NC(=O)[C@H](CCCNC(=N)N)NC(=O)[C@H](Cc2c[nH]cn2)NC(=O)[C@H](C)NC(=O)CNC(=O)[C@H](Cc2c[nH]c3ccccc23)NC(=O)[C@H](CC(=O)O)NC(=O)[C@H](CCC(N)=O)NC(=O)[C@H](Cc2c[nH]c3ccccc23)NC(=O)[C@H]([C@@H](C)CC)NC1=O [Compound 1] (Ac-ICIWQDWGAHRCT-NH2; disulfide 2-12) | < 250 nM | + (“+” denotes solubility at the given condition, as determined by UV absorbance being less than 0.1 AU at 340 nm and the sample being clear when manually inspected) | − (“−” denotes lack of solubility at the given condition, as UV absorbance at 340 nm exceeds 0.1 AU and/or it is visibly turbid or contains particles) | − (“−” denotes lack of solubility at the given condition, as UV absorbance at 340 nm exceeds 0.1 AU and/or it is visibly turbid or contains particles) | − (“−” denotes lack of solubility at the given condition, as UV absorbance at 340 nm exceeds 0.1 AU and/or it is visibly turbid or contains particles) | − (“−” denotes lack of solubility at the given condition, as UV absorbance at 340 nm exceeds 0.1 AU and/or it is visibly turbid or contains particles) | 150 nM | 
3 | CC[C@H](C)[C@H](NC(C)=O)C(=O)N[C@H]1CSSC[C@@H](C(=O)N[C@H](C(=O)NCC(=O)N[C@@H](C)C(=O)N[C@@H](CCC(=O)O)C(=O)N[C@@H](CO)C(N)=O)[C@@H](C)O)NC(=O)[C@H](CCCNC(=N)N)NC(=O)[C@H](Cc2c[nH]cn2)NC(=O)[C@H](CCC(=O)O)NC(=O)CNC(=O)[C@H](Cc2c[nH]c3ccccc23)NC(=O)[C@H](CC(=O)O)NC(=O)[C@H](CCC(N)=O)NC(=O)[C@H](Cc2c[nH]c3ccccc23)NC(=O)[C@H]([C@@H](C)CC)NC1=O [Compound 15] (Ac-ICIWQDWGEHRCTGAES-NH2; disulfide 2-12) | < 100 nM | + (“+” denotes solubility at the given condition, as determined by UV absorbance being less than 0.1 AU at 340 nm and the sample being clear when manually inspected) | − (“−” denotes lack of solubility at the given condition, as UV absorbance at 340 nm exceeds 0.1 AU and/or it is visibly turbid or contains particles) | − (“−” denotes lack of solubility at the given condition, as UV absorbance at 340 nm exceeds 0.1 AU and/or it is visibly turbid or contains particles) | + (“+” denotes solubility at the given condition, as determined by UV absorbance being less than 0.1 AU at 340 nm and the sample being clear when manually inspected) | + (“+” denotes solubility at the given condition, as determined by UV absorbance being less than 0.1 AU at 340 nm and the sample being clear when manually inspected) |  | 47 nM
4 | CC[C@H](C)[C@H](NC(C)=O)C(=O)N[C@H]1CSSC[C@@H](C(=O)N[C@H](C(=O)N[C@@H](CCC(=O)O)C(=O)N[C@@H](C)C(N)=O)[C@@H](C)O)NC(=O)[C@H](CCCNC(=N)N)NC(=O)[C@H](Cc2c[nH]cn2)NC(=O)[C@H](CCC(=O)O)NC(=O)CNC(=O)[C@H](Cc2c[nH]c3ccccc23)NC(=O)[C@H](CC(=O)O)NC(=O)[C@H](CCC(N)=O)NC(=O)[C@H](Cc2c[nH]c3ccccc23)NC(=O)[C@H]([C@@H](C)CC)NC1=O [Compound 25] (Ac-ICIWQDWGEHRCTEA-NH2; disulfide 2-12) | < 100 nM | + (“+” denotes solubility at the given condition, as determined by UV absorbance being less than 0.1 AU at 340 nm and the sample being clear when manually inspected) | − (“−” denotes lack of solubility at the given condition, as UV absorbance at 340 nm exceeds 0.1 AU and/or it is visibly turbid or contains particles) | − (“−” denotes lack of solubility at the given condition, as UV absorbance at 340 nm exceeds 0.1 AU and/or it is visibly turbid or contains particles) | + (“+” denotes solubility at the given condition, as determined by UV absorbance being less than 0.1 AU at 340 nm and the sample being clear when manually inspected) | + (“+” denotes solubility at the given condition, as determined by UV absorbance being less than 0.1 AU at 340 nm and the sample being clear when manually inspected) |  | 
5 | CC[C@H](C)[C@@H]1NC(=O)[C@@H](NC(=O)[C@H](Cc2ccccc2)NC(=O)[C@H](CCC(=O)O)NC(=O)[C@H](CO)NC(C)=O)CSSC[C@@H](C(=O)N[C@H](C(=O)NCC(=O)N[C@@H](C)C(=O)N[C@@H](CCC(=O)O)C(=O)N[C@@H](CO)C(N)=O)[C@@H](C)O)NC(=O)[C@H](CCCNC(=N)N)NC(=O)[C@H](Cc2c[nH]cn2)NC(=O)[C@H](CCC(=O)O)NC(=O)CNC(=O)[C@H](Cc2c[nH]c3ccccc23)NC(=O)[C@H](CC(=O)O)NC(=O)[C@H](CCC(N)=O)NC(=O)[C@H](Cc2cn(C)c3ccccc23)NC1=O [Compound 67] (Ac-SEFCI[Trp(1-Me)]QDWGEHRCTGAES-NH2; disulfide 4-14) | < 100 nM | − (“−” denotes lack of solubility at the given condition, as UV absorbance at 340 nm exceeds 0.1 AU and/or it is visibly turbid or contains particles) | − (“−” denotes lack of solubility at the given condition, as UV absorbance at 340 nm exceeds 0.1 AU and/or it is visibly turbid or contains particles) | + (“+” denotes solubility at the given condition, as determined by UV absorbance being less than 0.1 AU at 340 nm and the sample being clear when manually inspected) | + (“+” denotes solubility at the given condition, as determined by UV absorbance being less than 0.1 AU at 340 nm and the sample being clear when manually inspected) | + (“+” denotes solubility at the given condition, as determined by UV absorbance being less than 0.1 AU at 340 nm and the sample being clear when manually inspected) |  | 
6 | CC[C@H](C)[C@@H]1NC(=O)[C@@H](NC(=O)[C@H](Cc2ccccc2)NC(=O)[C@H](N)Cc2ccc(O)cc2)CSSC[C@@H](C(=O)N[C@H](C(=O)NCC(=O)N[C@@H](C)C(=O)N[C@@H](CCC(=O)O)C(=O)N[C@@H](CO)C(N)=O)[C@@H](C)O)NC(=O)[C@H](CCCNC(=N)N)NC(=O)[C@H](Cc2c[nH]cn2)NC(=O)[C@H](CCC(=O)O)NC(=O)CN(C)C(=O)[C@H](Cc2c[nH]c3ccccc23)NC(=O)[C@H](CC(=O)O)NC(=O)[C@H](CCC(N)=O)NC(=O)[C@H](Cc2cn(C)c3ccccc23)NC1=O [Compound 73, H-{d}YFC(1)I[1-Me-Trp]QDW[Sar]EHRC(1)TGAES-NH2] (H-[dY]FCI[Trp(1-Me)]QDW[Sar]EHRCTGAES-NH2; disulfide 3-13) | < 100 nM | + (“+” denotes solubility at the given condition, as determined by UV absorbance being less than 0.1 AU at 340 nm and the sample being clear when manually inspected) | − (“−” denotes lack of solubility at the given condition, as UV absorbance at 340 nm exceeds 0.1 AU and/or it is visibly turbid or contains particles) | − (“−” denotes lack of solubility at the given condition, as UV absorbance at 340 nm exceeds 0.1 AU and/or it is visibly turbid or contains particles) | + (“+” denotes solubility at the given condition, as determined by UV absorbance being less than 0.1 AU at 340 nm and the sample being clear when manually inspected) | + (“+” denotes solubility at the given condition, as determined by UV absorbance being less than 0.1 AU at 340 nm and the sample being clear when manually inspected) |  | 
